Measured values reported in patent US20250019385A1, “SPIROCYCLIC ANNULATED 2-AMINO-3-CYANO THIOPHENES AND DERIVATIVES FOR THE TREATMENT OF CANCER” (Boehringer Ingelheim International GmbH, priority 2023, published 2025).
pIC50: −log10 of the molar value.

Key:
[1] = target: KRAS (WT)::CRAF protein::protein interaction (Homo sapiens (Human), UniProt P01116); test: KRAS TR-FRET assay (KRAS WT::CRAF, GTP); format: binding
Protocol: (§1) This assay measures the inhibitory effect of compounds on KRAS::CRAF protein::protein interactions in the presence of GTP using Time-resolved fluorescence energy transfer (TR-FRET).
(§2) The following wildtype or mutant alleles of KRAS and CRAF protein have been used at the given concentrations:
KRAS (WT) 1-169, N-terminal 6His-tag, C-terminal avi-tag (Boehringer Ingelheim in house protein prep); final assay concentration 15 nM.
(§3) CRAF Ras binding domain, GST-tag, TEV cleavage site (Boehringer Ingelheim in house protein prep); final assay concentration 15 nM.
(§4) Test compounds dissolved in DMSO were dispensed onto assay plates (Proxiplate 384 PLUS, white, PerkinElmer; 6008289) using an Access Labcyte Workstation with the Labcyte Echo 55x. For the chosen highest assay concentration of 100 μM, 150 nl of compound solution was transferred from a 10 mM DMSO compound stock solution. A series of eleven fivefold dilutions per compound was transferred to the assay plate, compound dilutions were tested in duplicates. DMSO was added as backfill to a total volume of 150 nl.
(§5) The assay runs on a fully automated robotic system. To 150 nl of compound dilution 15 μl of a mix including the respective KRAS allele, CRAF (e.g. KRAS (G12D)::CRAF; final assay concentrations see above), GTP nucleotide (Sigma G8877; final assay concentration 10 μM), Lance Eu—W1024 labeled Streptavidin (PerkinElmer, Cat No AD0063; final assay concentration 1.5 nM) and Anti-GST surelight APC (PerkinElmer, Cat No AD0059G; final assay concentration 30 nM) in assay buffer (1×PBS, 0.1% BSA, 0.05% Tween 20) are added into columns 1-23 and 15 μL of the solution without the respective KRAS allele were added to row 24.
(§6) Plates are kept at room temperature in a darkened incubator. After 60 minutes incubation time the signal is measured in a PerkinElmer Envision HTS Multilabel Reader using the TR-FRET LANCE Ultra specs from PerkinElmer.
(§7) Each plate contains 16 wells of a negative control (diluted DMSO instead of test compound; w respective KRAS allele; column 23) and 16 wells of a positive control (diluted DMSO instead of test compound; w/o respective KRAS allele; column 24).
(§8) IC50 values were calculated and analyzed with Boehringer Ingelheim's MEGALAB 50 application using a 4 parametric logistic model.
(§9) Tables of example compounds disclosed herein contain IC50 values determined using the above assays (see Table 44).

Ba/F3 cells KRAS G12D = test: Ba/F3 proliferation assay (KRAS G12D); format: cell-based; conditions: Mus musculus, BaF3, 72 h, AlamarBlue viability
Protocol: (§10) Ba/F3 cells are ordered from DSMZ (ACC300, Lot17) and grown in RPMI-1640 (ATCC 30-2001)+10% FCS+10 ng/mL IL-3 at 37° C. in 5% […] atmosphere. Plasmids containing KRASG12 mutants (i.e. […], G12C, G12V) are obtained from GeneScript. To generate KRASG12-dependent Ba/F3 models, Ba/F3 cells are transduced with retroviruses containing vectors that harbor KRASG12 isoforms. Platinum-E cells (Cell Biolabs) are used for retrovirus packaging. Retrovirus is added to Ba/F3 cells. To ensure infection, 4 μg/mL polybrene is added and cells are spinfected. Infection efficiency is confirmed by measuring GFP-positive cells using a cell analyzer. Cells with an infection efficiency of 10% to 20% are further cultivated and puromycin selection with 1 μg/mL is initiated. As a control, parental Ba/F3 cells are used to show selection status. Selection is considered successful when parental Ba/F3 cells cultures died. To evaluate the transforming potential of KRASG12 mutations, the growth medium is no longer supplemented with IL-3. Ba/F3 cells harboring the empty vector are used as a control. Approximately ten days before conducting the experiments, puromycin is left out.
(§11) For proliferation assays, Ba/F3 cells are seeded into 384-well plates at 1.5×1 (M cells/60 μL in growth media (RPMI-1640+10% FCS). Compounds (10 mM stock in DMSO) are added at logarithmic dose series using the ECHO acoustic liquid handler system (Beckman Coulter), normalizing for added DMSO and including DMSO controls. All compound treatments are performed in technical duplicates. For the TO time point measurement, untreated cells are analyzed at the time of compound addition. Treated cells are incubated for 72 h at 37° C. with 5% CO2 and cell viability is measured in the PerkinElmer Envision Multimode Reader using AlamarBlue™ (ThermoFisher) viability stain. Viability (stated as percent of control) is defined as relative fluorescence units RFU of each well divided by the RFU of cells in DMSO controls. IC50 values are determined from viability measurements by non-linear regression using a four-parameter model.

[2] = target: KRAS (G12D)::CRAF protein::protein interaction (Homo sapiens (Human), UniProt P01116, G12D); test: KRAS TR-FRET assay (KRAS G12D::CRAF, GTP); format: binding
KRAS (G12D)::CRAF protein::protein interaction, sequence (P01116 other isoform, or with tags, fused parts or gaps G12D): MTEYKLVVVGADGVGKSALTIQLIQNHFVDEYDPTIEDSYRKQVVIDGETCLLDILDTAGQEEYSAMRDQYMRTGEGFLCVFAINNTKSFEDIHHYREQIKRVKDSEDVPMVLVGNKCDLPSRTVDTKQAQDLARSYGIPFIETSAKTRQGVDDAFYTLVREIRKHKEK
Protocol: as §1, §2
KRAS (G12D) 1-169, N-terminal 6His-tag, C-terminal avi-tag (Xtal BioStructures, Inc.); final assay concentration 15 nM,
as §3, §4, §5, §6, §7, §8, §9

AsPC-1 cells = test: AsPC-1 CTG proliferation assay (120 h) (pancreatic cancer, G12D); format: cell-based; conditions: Homo sapiens, ASPC1
Protocol: AsPC-1 cells (ATCC CRL-1682) are dispensed into black 384-well plates, flat and clear bottom (Greiner, PNr. 781091) at a density of 500 cells per well in 60 μl RPMI ATCC-Formulation (PAN P04-18047)+10% FCS (fetal calf serum, HyClone, SH30084.03). Cells are incubated overnight at 37° C. in a humidified tissue culture incubator at 5% CO2. Compounds (10 mM stock in DMSO) are added at logarithmic dose series using the ECHO acoustic liquid handler system (Beckman Coulter), normalizing for added DMSO and including DMSO controls. All compound treatments are performed in technical duplicates. For the TO time point measurement, untreated cells are analyzed at the time of compound addition. Plates are incubated for 120 h, and cell viability is measured using CellTiter-Glo luminescent cell viability reagent (Promega product code G7570). Viability (stated as percent of control) is defined as relative luminescence units RLU of each well divided by the RLU of cells in DMSO controls. IC50 values are determined from viability measurements by non-linear regression using a four-parameter model.
IC50 values of representative compounds according to the invention measured with these assays in the indicated cell lines are presented in Table 46.

Ba/F3 cells KRAS G12C = test: Ba/F3 proliferation assay (KRAS G12C); format: cell-based; conditions: Mus musculus, BaF3, 72 h, AlamarBlue viability
Protocol: as §10, §11

[3] = target: KRAS (G12V)::CRAF protein::protein interaction (Homo sapiens (Human), UniProt P01116, C118S/G12V); test: KRAS TR-FRET assay (KRAS G12V::CRAF, GTP); format: binding
KRAS (G12V)::CRAF protein::protein interaction, sequence (P01116 other isoform, or with tags, fused parts or gaps G12V/C118S): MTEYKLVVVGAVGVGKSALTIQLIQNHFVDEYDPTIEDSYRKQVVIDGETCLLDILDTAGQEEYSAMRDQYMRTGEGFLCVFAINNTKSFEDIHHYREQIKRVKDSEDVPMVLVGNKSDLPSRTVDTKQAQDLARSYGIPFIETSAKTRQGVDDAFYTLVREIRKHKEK
Protocol: as §1, §2
KRAS (G12V) 1-169, C118S, N-terminal 6His-tag, C-terminal avi-tag (Boehringer Ingelheim in house protein prep); final assay concentration 15 nM.
as §3, §4, §5, §6, §7, §8, §9

KRAS (WT)::CRAF protein::protein interaction, sequence (P01116 other isoform, or with tags, fused parts or gaps): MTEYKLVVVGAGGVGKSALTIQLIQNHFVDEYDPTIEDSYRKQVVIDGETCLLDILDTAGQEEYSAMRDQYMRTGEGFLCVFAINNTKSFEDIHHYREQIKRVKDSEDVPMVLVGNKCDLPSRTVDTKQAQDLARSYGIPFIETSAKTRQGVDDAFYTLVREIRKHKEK

Compound | pIC50 [1] | pIC50 (Ba/F3 cells KRAS G12D) | pIC50 [2] | pIC50 (AsPC-1 cells) | pIC50 (Ba/F3 cells KRAS G12C) | pIC50 [3]
COCCn1c(=O)n([C@@H]2CCOC2)c2nc(-c3onc4c3CCC[C@@]43CCCc4sc(N)c(C#N)c43)nc(O[C@@H](C)[C@@H]3CCCN3C)c21 [I-1] | 6.80 | 7.44 | 6.84 | 6.15 | 7.82 | 6.97
CO[C@H]1C[C@@H]([C@H](C)Oc2nc(-c3onc4c3CCC[C@@]43CCCc4sc(N)c(C#N)c43)nc3c2n(C)c(=O)n3[C@@H]2CCOC2)N(C)C1 [I-2] | 6.37 | 7.05 | 6.40 | 5.71 | 7.39 | 6.74
CO[C@@H]1C[C@@H]([C@H](C)Oc2nc(-c3onc4c3CCC[C@@]43CCCc4sc(N)c(C#N)c43)nc3c2n(C)c(=O)n3[C@@H]2CCOC2)N(C)C1 [I-3] | 7.00 | 7.85 | 7.15 | 6.36 | 8.22 | 7.16
C[C@H](Oc1nc(-c2onc3c2CCC[C@@]32CCCc3sc(N)c(C#N)c32)nc2c1n(C)c(=O)n2[C@@H]1CCOC1)[C@@H]1[C@@H](F)CCN1C [I-5] | 6.18 | 7.17 | 6.35 | 6.65 | 7.51 | 6.58
COCCn1c(=O)n(C)c2c(O[C@@H](C)[C@@H]3CCCN3C)nc(-c3onc4c3CCC[C@@]43CCCc4sc(N)c(C#N)c43)nc21 [I-7] | 5.94 | 6.69 | 5.65 | 5.32 | 7.00 | 6.35
C[C@H](Oc1nc(-c2onc3c2CCC[C@@]32CCCc3sc(N)c(C#N)c32)nc2c1[nH]c(=O)n2[C@@H]1CCOC1)[C@@H]1CCCN1C [I-8] | 7.35 | 6.97 | 7.33 | 5.90 | 7.39 | 7.70
C[C@H](Oc1nc(-c2onc3c2CCC[C@@]32CCCc3sc(N)c(C#N)c32)nc2c1n(C)c(=O)n2[C@H]1CCOC1)[C@@H]1CCCN1C [I-9] | 6.21 | 7.34 | 6.38 | 6.12 | 7.42 | 6.70
C[C@H](Oc1nc(-c2onc3c2CCC[C@@]32CCCc3sc(N)c(C#N)c32)nc2c1n(C)c(=O)n2C1CCOCC1)[C@@H]1CCCN1C [I-10] | 6.46 | 6.93 | 6.16 | 5.46 | 7.37 | 6.96
C[C@H](Oc1nc(-c2onc3c2CCC[C@@]32CCCc3sc(N)c(C#N)c32)nc2c1n(C)c(=O)n2[C@H]1CCCOC1)[C@@H]1CCCN1C [I-11] | 6.47 | 6.46 | 6.34 | 5.35 | 6.51 | 6.50
C[C@H](Oc1nc(-c2onc3c2CCC[C@@]32CCCc3sc(N)c(C#N)c32)nc2c1n(C)c(=O)n2[C@@H]1CCCOC1)[C@@H]1CCCN1C [I-12] | 7.43 | 7.92 | 7.21 | 6.49 | 8.40 | 7.66
